In brackets after ≈: the same amount, converted by molar mass.
Tests used:
L5178Y = experiment: Cytotoxicity, 50% inhibition of growth of L5178Y cells in vitro; type: cell-based; settings: Mus musculus, 96 hrs. incubation at 37° C., read-out: Cytoxicity ID50
Procedure: Concentration required for 50% inhibition of growth of cells in vitro
after 96 hrs. incubation at 37° C.

[1] = test system: herpes simplex virus (HSV); settings: cited from earlier work
uninfected cells = settings: compared with 5-iodo (or 5-bromo)-2'-deoxyuridine; cited from earlier work
[2] = test system: viral versus the cellular enzymes (TK and DNA polymerase); experiment: Direct testing of interaction with the viral versus the cellular enzymes; type: biochemical; settings: FIAC or its triphosphate
[3] = test system: Herpes Simplex Virus type 1; experiment: Inhibition of Herpes Simplex Virus type 1 replication; type: cell-based
Procedure: (§1) Compounds of the invention show anti-viral and anti-tumor activity. 1-(2-Deoxy-2-fluoro-β-D-arabinofuranosyl)-5-iodocytosine inhibits Herpes Simplex Virus type 1 and type 2 replication. HFEM, Patton, 2931, and F-strain HSV-1 and 333 and G-strain HSV-2 are effected at concentrations of 1-(2-deoxy-2-fluoro-β-D-arabinofuranosyl)-5-iodocytosine 0.01μM (approximately 0.004 μg/ml).
(§2) The effective doses for 1-(2-deoxy-2-fluoro-β-D-arabinofuranosyl)-5-iodocytosine are given below. 1-(2-deoxy-2-fluoro-β-D-arabinofuranosyl)-5-iodocytosine is diluted in physiological saline, filter sterilized, and inoculated. This compound is readily soluble at concentrations of 25 mg/ml in saline. In mouse studies, the drug is inoculated by the intraperitoneal route.

[4] = Toxicity to normal human lymphoblastoid cells; type: cell-based; settings: read-out: concentration up to which not toxic to normal human lymphoblastoid cells
Procedure: Since 1-(2-deoxy-2-fluoro-β-D-arabinofuranosyl)-5-iodocytosine was not toxic to normal human lymphoblastoid cells at concentrations of up to 10 μM, the compound is believed to affect tumor cells at concentrations 1/100th those needed to suppress normal cell replication.

turkey herpesvirus = experiment: In vivo test on avian (turkey) herpesvirus in day-old chicks; settings: 2.5 mg FIAC per 50 g chick at intervals
Procedure: In vivo tests were run to determine the effect of FIAC on avian (turkey) herpesvirus. To this end, day-old chicks were infected with turkey herpesvirus and treated at intervals with 2.5 mg FIAC per 50 g chick.

[5] = test system: cytomegalovirus (CMV strain AD 169); experiment: Activity against cytomegalovirus (plaque formation on WI-38 cells); type: cell-based
[6] = test system: Herpes Simplex Virus type 2; experiment: Inhibition of Herpes Simplex Virus type 2 replication; type: cell-based
Procedure: as §1, §2

[7] = test system: herpes simplex virus-type 1 DNA; experiment: Inhibition of replication of HSV-1 DNA versus cellular DNA in the same infected cells; type: cell-based; settings: viral vs cellular DNA in the same infected cells
herpes zoster virus = experiment: Anti-viral activity against herpes zoster virus; type: cell-based
HSV-1 strain 2931 = experiment: In vivo HSV-1 infection of A/J mice; settings: for mice that survived the 21 day experiment: starting 24 hours after inoculation, intraperitoneal
Procedure: as §2
1-(2-deoxy-2-fluoro-β-D-arabinofuranosyl)-5-iodocytosine was also shown to be active in vivo. A/J mice were inoculated with approximately 50 LD50 of HSV-1 strain 2931 intraperitoneally and then treated with 1-(2-deoxy-2-fluoro-β-D-arabinofuranosyl)-5-iodocytosine starting 24 hours later. 1-(2-deoxy-2-fluoro-β-D-arabinofuranosyl)-5-iodocytosinewas given at 10 and 1 mg/kg/da for 5 days. Untreated mice died 8 days post inoculation. Five of 10 mice treated with 10 mg/kg/day survived the 21 day experiment. Two of 10 treated with 1 mg/kg/da survival the 21 day experiment and the remainder died an average of 10 days after inoculation.

[8] = series of herpes simplex virus-types 1 and 2

Question: For `Nc1nc(=O)n([C@@H]2O[C@H](CO)[C@@H](O)[C@@H]2F)cc1F` [IVb, 1-(2-deoxy-2-fluoro-β-D-arabinofuranosyl)-5-fluorocytosine], which IC50 (L5178Y) is on record?
Answer: 0.5 µg/mL (≈ 1.9 µM)

Question: With `O=c1[nH]c(=O)n([C@@H]2O[C@H](CO)[C@@H](O)[C@@H]2F)cc1Br` [Vd, 1-(2-deoxy-2-fluoro-β-D-arabinofuranosyl)-5-bromouracil] as the compound, how does the IC50 (L5178Y) read?
Answer: 0.9 µg/mL (≈ 2.77 µM)

Question: For `Nc1nc(=O)n([C@H]2C[C@H](O)[C@@H](CO)O2)cc1I` [5-iodo-2'-deoxycytidine], which “inhibition of HSV replication” value [1] is on record?
Answer: as effectively as their corresponding deoxyuridine analogs

Question: What about the “toxicity to uninfected cells” value (uninfected cells) of the same compound?
Answer: less toxic to uninfected cells

Question: Which IC50 (L5178Y) does the source give for `Nc1nc(=O)n([C@@H]2O[C@H](CO)[C@@H](O)[C@@H]2F)cc1Br` [IVd, 1-(2-deoxy-2-fluoro-β-D-arabinofuranosyl)-5-bromocytosine] here?
Answer: ~10 µg/mL (≈ 30.9 µM)

Question: Which IC50 (L5178Y) does the source give for `Nc1ccn([C@@H]2O[C@H](CO)[C@@H](O)[C@@H]2F)c(=O)n1` [IVa, 1-(2-deoxy-2-fluoro-β-D-arabinofuranosyl)cytosine, reference compound] here?
Answer: 0.05 µg/mL (≈ 0.204 µM)

Question: Which IC50 (L5178Y) does the source give for `O=c1[nH]c(=O)n([C@@H]2O[C@H](CO)[C@@H](O)[C@@H]2F)cc1F` [Vb, 1-(2-deoxy-2-fluoro-β-D-arabinofuranosyl)-5-fluorouracil] here?
Answer: 1 µg/mL (≈ 3.79 µM)

Question: Which results are given for `Nc1nc(=O)n([C@H]2C[C@H](O)[C@@H](CO)O2)cc1Br` [5-Bromo-2'-deoxycytidine]?
Answer: inhibition of HSV replication [1]: as effectively as their corresponding deoxyuridine analogs; toxicity to uninfected cells (uninfected cells): less toxic to uninfected cells

Question: What does the source list for `Nc1nc(=O)n([C@@H]2O[C@H](CO)[C@@H](O)[C@@H]2F)cc1I` [1-(2-deoxy-2-fluoro-β-D-arabinofuranosyl)-5-iodocytosine]?
Answer: selectivity for viral versus cellular enzymes [2]: selectivity was demonstrated; minimal effective concentration ([3]; Human alphaherpesvirus 1, HFEM, Patton, 2931, and F-strain HSV-1, read-out: concentration at which HSV-1 strains are effected): ~0.004 µg/mL; anti-viral activity [3, 8]: impressive anti-viral activity; MNTC [4]: > 10 µM; effect on virus induced leukopenia / inhibition of the virus (turkey herpesvirus): brought the virus induced leukopenia back to the levels of the control uninfected chicks and thus inhibited the virus; sensitivity of cytomegalovirus to anti-viral effect [5]: sensitive; minimal effective concentration ([6]; Human alphaherpesvirus 2, 333 and G-strain HSV-2, read-out: concentration at which HSV-2 strains are effected): ~0.004 µg/mL; anti-viral activity [6, 8]: impressive anti-viral activity; selective inhibition of replication of viral DNA [7]: selectively inhibit the replication of herpes simplex virus-type 1 DNA but not cellular DNA; anti-viral activity (herpes zoster virus): impressive anti-viral activity; mice that survived the 21 day experiment (HSV-1 strain 2931; 1 mg/kg/da for 5 days): Two of 10; average time of death after inoculation (remainder) (HSV-1 strain 2931; 1 mg/kg/da for 5 days, untreated mice died 8 days post inoculation): 10 days; mice that survived the 21 day experiment (HSV-1 strain 2931; 10 mg/kg/day for 5 days): Five of 10

Question: For `O=c1ccn([C@@H]2O[C@H](CO)[C@@H](O)[C@@H]2F)c(=O)[nH]1` [Va], which IC50 (L5178Y) is on record?
Answer: > 10 µg/mL

Question: For `Cc1cn([C@@H]2O[C@H](CO)[C@@H](O)[C@@H]2F)c(=O)[nH]c1=O` [Vf, 1-(2-deoxy-2-fluoro-β-D-arabinofuranosyl)thymine], which “sensitivity of cytomegalovirus to anti-viral effect” value [5] is on record?
Answer: sensitive

Question: Which IC50 (L5178Y) does the source give for `Nc1nc(=O)n([C@@H]2O[C@H](CO)[C@@H](O)[C@@H]2F)cc1Cl` [IVc, 1-(2-deoxy-2-fluoro-β-D-arabinofuranosyl)-5-chlorocytosine] here?
Answer: 1.4 µg/mL (≈ 5.01 µM)

Question: Which IC50 (L5178Y) does the source give for `O=c1[nH]c(=O)n([C@@H]2O[C@H](CO)[C@@H](O)[C@@H]2F)cc1I` [Ve, 1-(2-deoxy-2-fluoro-β-D-arabinofuranosyl)-5-iodouracil] here?
Answer: 0.9 µg/mL (≈ 2.42 µM)

Question: Which IC50 (L5178Y) does the source give for `Cl.Nc1nc(=O)n([C@@H]2O[C@H](CO)[C@@H](O)[C@@H]2F)cc1I` [IVe, 1-(2-Deoxy-2-fluoro-β-D-arabinofuranosyl)-5-iodocytosine hydrochloride] here?
Answer: 48 µg/mL

Question: Which IC50 (L5178Y) does the source give for `O=c1[nH]c(=O)n([C@@H]2O[C@H](CO)[C@@H](O)[C@@H]2F)cc1Cl` [Vc, 1-(2-deoxy-2-fluoro-β-D-arabinofuranosyl)-5-chlorouracil] here?
Answer: 1.4 µg/mL (≈ 4.99 µM)

Source: patent US4594339A, “Anti-herpes virus compositions containing 5-substituted 1-2'(deoxy-2-'-substituted-β-d-arabinofuranosyl)pyrimedene nucleosides” (priority 1984, dated 1986)
